Assay results from ChEMBL document CHEMBL1201862, “PubChem BioAssay data set” (2004).
Active and inactive are the calls of the source.

Tests used:
[1] = biological target: NACHT, LRR and PYD domains-containing protein 3 (Homo sapiens, UniProt Q96P20); assay: NALP3 inhibitors in yeast, dose response, luminescent (AID 488799); assay type: functional
[2] = biological target: Delta-type opioid receptor (Homo sapiens, UniProt P41143); assay: SAR Analysis of Antagonists of the DOR Receptor using an Image-Based Assay - Set 3. [Related pubchem assays (depositor defined):AID1777, AID1785]; assay type: functional;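 also: U2OS cells expressing DOR1 and beta-arrestin GFP stimulated with 100 nM SNC80; imaging of GFP-tagged beta-arrestin moving into spots after receptor activation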
Chain of Delta-type opioid receptor (P41143 whole entry): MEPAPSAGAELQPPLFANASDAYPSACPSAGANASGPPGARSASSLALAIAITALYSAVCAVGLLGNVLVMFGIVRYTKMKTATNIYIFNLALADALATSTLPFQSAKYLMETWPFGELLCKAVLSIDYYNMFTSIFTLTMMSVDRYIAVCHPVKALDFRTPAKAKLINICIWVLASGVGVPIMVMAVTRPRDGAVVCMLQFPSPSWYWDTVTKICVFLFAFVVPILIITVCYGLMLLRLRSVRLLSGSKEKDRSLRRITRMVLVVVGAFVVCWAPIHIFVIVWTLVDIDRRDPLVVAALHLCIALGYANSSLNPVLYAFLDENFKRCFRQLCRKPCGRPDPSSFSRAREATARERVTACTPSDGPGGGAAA

Mu-type opioid receptor = Mu-type opioid receptor (Homo sapiens, UniProt P35372); assay: SAR Analysis of Antagonists of the MOR Receptor using an Image-Based Assay - Set 3. [Related pubchem assays (depositor defined):AID1777, AID1785, AID1786, AID1966, AID2133, AID2136, AID2284, AID2285, AID2420]; assay type: functional
Chain of Mu-type opioid receptor (P35372 whole entry): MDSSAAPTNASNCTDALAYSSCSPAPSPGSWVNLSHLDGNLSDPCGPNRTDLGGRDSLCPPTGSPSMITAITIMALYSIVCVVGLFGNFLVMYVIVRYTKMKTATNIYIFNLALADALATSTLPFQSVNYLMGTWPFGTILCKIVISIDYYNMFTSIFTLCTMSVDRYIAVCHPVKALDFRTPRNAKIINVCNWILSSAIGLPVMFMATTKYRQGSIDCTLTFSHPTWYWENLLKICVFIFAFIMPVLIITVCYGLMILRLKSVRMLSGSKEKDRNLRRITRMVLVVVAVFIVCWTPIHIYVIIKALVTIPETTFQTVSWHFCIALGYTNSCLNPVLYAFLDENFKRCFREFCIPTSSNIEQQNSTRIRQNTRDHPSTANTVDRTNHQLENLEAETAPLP

[3] = biological target: T1, Kappa-type opioid receptor (Homo sapiens, UniProt P41145); assay: SAR analysis of small molecule antagonists of the kappa opioid receptor via a luminescent beta-arrestin assay - Set 4. [Related pubchem assays (depositor defined):AID1777, AID1778, AID1785, AID1786, AID1966, AID2133, AID2136, AID2285]; assay type: functional
T1 sequence (P41145 whole entry): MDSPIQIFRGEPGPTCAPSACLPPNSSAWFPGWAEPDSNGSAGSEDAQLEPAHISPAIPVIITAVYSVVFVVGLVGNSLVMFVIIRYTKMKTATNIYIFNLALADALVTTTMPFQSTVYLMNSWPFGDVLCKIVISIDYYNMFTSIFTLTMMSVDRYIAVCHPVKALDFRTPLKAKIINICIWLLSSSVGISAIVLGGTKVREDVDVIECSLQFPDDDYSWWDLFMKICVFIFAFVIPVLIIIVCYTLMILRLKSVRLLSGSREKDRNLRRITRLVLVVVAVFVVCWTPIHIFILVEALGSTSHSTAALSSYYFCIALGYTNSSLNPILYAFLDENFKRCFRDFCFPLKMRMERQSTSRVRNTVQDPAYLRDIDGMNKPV

[4] = biological target: T1, Kappa-type opioid receptor; assay: SAR analysis of Antagonists of the Kappa Opioid Receptor (KOR) using an Image-Based Assay - Set 4. [Related pubchem assays (depositor defined):AID1777, AID1785]; assay type: functional
[5] = biological target: G2/mitotic-specific cyclin-B1 (Homo sapiens, UniProt P14635); assay: HeLa cell cycle G2/M accumulation – FACS, mechanism study for Wee1 degradation inhibitor project, late-stage follow-up, panel member Cyclin B Degradation (AID 2088)
Chain of G2/mitotic-specific cyclin-B1 (P14635 whole entry): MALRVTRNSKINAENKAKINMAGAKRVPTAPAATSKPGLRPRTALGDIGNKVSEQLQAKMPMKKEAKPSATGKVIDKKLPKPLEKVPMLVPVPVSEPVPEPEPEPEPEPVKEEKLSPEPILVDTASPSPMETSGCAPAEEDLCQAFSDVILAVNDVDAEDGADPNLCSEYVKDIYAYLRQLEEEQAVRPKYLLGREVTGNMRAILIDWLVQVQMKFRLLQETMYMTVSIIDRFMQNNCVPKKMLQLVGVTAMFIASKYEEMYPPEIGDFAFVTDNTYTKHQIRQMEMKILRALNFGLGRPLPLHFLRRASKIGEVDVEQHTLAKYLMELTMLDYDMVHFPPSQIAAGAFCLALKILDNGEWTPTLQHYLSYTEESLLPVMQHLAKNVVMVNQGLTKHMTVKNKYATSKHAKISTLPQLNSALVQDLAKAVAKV

Wee1-like protein kinase = Wee1-like protein kinase (Homo sapiens, UniProt P30291); assay: HeLa cell cycle G2/M accumulation – FACS, mechanism study for Wee1 degradation inhibitor project, late-stage follow-up, panel member Wee1 Degradation (AID 2088)
Chain of Wee1-like protein kinase (P30291 whole entry): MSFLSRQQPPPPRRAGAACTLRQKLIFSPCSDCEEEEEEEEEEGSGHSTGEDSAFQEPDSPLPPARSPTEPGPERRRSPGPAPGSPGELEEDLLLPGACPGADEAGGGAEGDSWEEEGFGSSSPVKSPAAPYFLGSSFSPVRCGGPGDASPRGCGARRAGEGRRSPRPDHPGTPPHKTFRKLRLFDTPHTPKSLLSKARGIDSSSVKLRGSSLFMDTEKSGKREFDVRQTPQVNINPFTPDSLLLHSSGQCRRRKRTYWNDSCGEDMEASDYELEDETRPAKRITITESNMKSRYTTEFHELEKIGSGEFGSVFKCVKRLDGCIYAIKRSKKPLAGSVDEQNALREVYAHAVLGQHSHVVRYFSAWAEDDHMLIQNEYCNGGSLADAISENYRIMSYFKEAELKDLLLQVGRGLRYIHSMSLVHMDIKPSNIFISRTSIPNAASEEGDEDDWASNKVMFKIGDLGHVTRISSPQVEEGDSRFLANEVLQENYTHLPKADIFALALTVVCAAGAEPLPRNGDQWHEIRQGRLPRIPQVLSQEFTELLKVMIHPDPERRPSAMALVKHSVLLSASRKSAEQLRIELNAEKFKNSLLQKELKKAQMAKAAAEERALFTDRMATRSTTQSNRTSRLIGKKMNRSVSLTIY

[6] = Luminescence Cell-Based Dose Confirmation HTS to Identify Inhibitors of Platelet Dense Granule Release. [Related pubchem assays: 1663 (Primary HTS), 1678 (Summary of Project)]; assay type: functional
[7] = biological target: Luciferin 4-monooxygenase (Photinus pyralis, UniProt P08659); assay: inhibition of purified Photinus pyralis luciferase – biochemical, luminescence, dose response (AID 1891)
Chain of Luciferin 4-monooxygenase (P08659 whole entry): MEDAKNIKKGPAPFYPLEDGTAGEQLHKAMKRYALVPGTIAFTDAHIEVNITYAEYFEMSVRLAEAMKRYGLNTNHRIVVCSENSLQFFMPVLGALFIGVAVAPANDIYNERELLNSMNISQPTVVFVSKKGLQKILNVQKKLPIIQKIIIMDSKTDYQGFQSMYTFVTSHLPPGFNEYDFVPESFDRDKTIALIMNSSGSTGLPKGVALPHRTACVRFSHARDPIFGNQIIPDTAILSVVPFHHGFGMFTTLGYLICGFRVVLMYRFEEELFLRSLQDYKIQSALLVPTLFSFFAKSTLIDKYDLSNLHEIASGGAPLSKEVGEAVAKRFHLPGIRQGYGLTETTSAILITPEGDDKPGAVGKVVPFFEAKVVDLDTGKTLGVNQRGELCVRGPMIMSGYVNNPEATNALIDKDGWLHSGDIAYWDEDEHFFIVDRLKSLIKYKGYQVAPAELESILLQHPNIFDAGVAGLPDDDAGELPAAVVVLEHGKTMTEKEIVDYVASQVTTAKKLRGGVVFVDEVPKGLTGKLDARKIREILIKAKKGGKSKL

[8] = biological target: Cyclin-dependent kinase 5/CDK5 activator 1 (Homo sapiens, UniProt Q00535); assay: blockade of human CDK5 activity – biochemical, cherry-picked samples, set 2, dose response (AID 504545)
Chain of Cyclin-dependent kinase 5/CDK5 activator 1 (Q00535 whole entry): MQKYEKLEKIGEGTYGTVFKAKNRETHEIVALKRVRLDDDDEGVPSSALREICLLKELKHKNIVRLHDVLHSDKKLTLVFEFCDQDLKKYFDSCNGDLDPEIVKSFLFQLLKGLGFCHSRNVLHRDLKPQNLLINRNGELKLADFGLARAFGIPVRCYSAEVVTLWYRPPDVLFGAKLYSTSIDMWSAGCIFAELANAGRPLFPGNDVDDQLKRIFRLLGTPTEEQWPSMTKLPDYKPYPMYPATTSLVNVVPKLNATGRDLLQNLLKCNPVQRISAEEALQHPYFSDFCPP
Chain of Cyclin-dependent kinase 5/CDK5 activator 1 (Q15078 whole entry, further chain): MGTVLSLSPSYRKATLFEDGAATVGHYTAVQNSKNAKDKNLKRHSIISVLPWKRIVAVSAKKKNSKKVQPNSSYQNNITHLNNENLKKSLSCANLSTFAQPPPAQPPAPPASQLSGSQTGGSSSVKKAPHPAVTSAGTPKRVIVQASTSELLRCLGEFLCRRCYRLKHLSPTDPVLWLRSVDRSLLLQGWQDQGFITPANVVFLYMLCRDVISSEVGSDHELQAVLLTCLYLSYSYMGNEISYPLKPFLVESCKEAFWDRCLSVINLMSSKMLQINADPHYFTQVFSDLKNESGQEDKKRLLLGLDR

[9] = ADP-Glo luciferase signal interference – biochemical, luminescence, cherry-picked samples, set 2, artefact control for CDK5 inhibitor project, dose response (AID 504546); assay type: functional, cell-based
[10] = HEK-293T cell viability reduction – luminescence, B-cell screen hits, cytotoxicity control for BCR NF-kB inhibitor project, dose response (AID 489021); assay type: functional, cell-based;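 also: HEK-293T cells carrying an NF-kB luciferase reporter; cells exposed to compound for about 14 hours before viability readout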
[11] = biological target: T2, Histone-lysine N-methyltransferase NSD2 (Homo sapiens, UniProt O96028); assay type: biochemical
T2 sequence (O96028 whole entry): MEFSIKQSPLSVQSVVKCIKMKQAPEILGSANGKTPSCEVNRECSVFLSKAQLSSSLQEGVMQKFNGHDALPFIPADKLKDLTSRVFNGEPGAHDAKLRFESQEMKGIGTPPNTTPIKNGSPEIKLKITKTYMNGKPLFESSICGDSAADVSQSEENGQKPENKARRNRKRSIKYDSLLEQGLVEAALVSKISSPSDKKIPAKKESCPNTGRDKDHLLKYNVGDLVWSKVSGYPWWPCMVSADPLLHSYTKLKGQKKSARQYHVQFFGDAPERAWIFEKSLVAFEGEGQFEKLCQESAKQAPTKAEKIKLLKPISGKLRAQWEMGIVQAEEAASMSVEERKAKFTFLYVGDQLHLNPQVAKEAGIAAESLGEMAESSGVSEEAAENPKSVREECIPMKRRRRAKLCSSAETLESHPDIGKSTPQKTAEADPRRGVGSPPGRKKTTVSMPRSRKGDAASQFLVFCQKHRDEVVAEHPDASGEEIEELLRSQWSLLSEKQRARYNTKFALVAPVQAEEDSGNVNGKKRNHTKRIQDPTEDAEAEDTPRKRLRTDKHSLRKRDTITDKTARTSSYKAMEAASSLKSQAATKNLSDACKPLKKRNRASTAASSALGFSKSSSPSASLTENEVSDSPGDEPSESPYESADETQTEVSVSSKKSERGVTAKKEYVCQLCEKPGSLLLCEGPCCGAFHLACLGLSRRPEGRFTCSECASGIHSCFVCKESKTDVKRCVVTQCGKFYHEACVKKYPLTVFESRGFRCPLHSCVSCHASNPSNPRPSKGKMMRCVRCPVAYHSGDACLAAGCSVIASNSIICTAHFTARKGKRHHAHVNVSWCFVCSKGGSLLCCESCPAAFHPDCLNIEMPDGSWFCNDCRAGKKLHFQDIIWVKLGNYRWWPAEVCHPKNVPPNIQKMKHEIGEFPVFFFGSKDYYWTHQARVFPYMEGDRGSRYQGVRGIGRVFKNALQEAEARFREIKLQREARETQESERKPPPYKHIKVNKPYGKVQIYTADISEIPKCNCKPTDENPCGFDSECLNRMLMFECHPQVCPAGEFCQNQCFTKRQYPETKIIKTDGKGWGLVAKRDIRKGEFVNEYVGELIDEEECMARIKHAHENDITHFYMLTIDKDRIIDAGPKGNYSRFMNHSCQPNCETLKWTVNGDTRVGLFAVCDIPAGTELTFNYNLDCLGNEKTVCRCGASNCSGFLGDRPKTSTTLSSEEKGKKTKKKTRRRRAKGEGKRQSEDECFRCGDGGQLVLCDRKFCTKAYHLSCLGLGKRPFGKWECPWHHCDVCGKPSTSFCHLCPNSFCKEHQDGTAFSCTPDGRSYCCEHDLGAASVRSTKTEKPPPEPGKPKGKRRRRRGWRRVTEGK

Chain of NACHT, LRR and PYD domains-containing protein 3 (Q96P20 whole entry, the tested form may be a part): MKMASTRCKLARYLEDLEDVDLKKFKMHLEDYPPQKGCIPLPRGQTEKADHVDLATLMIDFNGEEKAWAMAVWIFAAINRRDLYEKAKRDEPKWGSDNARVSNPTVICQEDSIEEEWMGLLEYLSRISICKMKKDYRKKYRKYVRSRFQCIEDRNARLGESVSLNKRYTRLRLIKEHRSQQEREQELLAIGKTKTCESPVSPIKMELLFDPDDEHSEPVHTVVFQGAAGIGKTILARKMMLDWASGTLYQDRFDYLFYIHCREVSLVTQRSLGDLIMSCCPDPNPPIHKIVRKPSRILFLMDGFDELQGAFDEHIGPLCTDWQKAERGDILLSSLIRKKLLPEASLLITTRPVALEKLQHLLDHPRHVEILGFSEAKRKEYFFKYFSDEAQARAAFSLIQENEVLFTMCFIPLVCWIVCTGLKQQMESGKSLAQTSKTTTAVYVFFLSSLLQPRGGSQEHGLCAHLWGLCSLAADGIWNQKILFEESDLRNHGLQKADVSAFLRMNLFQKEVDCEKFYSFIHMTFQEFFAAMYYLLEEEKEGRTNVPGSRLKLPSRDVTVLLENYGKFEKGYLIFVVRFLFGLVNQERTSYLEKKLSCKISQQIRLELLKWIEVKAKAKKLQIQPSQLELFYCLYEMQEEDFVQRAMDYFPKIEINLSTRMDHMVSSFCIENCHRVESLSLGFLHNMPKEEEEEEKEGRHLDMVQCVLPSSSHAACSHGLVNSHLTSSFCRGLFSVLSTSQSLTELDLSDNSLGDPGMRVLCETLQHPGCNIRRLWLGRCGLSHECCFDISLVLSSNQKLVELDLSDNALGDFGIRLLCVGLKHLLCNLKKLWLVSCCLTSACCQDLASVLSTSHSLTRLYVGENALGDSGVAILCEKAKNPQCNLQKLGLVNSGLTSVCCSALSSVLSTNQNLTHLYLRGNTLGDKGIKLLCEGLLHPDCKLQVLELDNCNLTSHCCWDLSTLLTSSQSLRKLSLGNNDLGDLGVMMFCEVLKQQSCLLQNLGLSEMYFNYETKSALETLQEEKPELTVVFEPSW

CCCCCNC(=O)C(=O)C1C(=O)Nc2ccccc21 (stereo not drawn)
IC50 [1]: 2.9 µM (active)

Cc1ccc(S(=O)(=O)NCc2ccc(C(=O)NC3CCN(Cc4ccccc4)C3)cc2)cc1 (stereo not drawn)
IC50 [2]: > 32 µM (inactive)
IC50 (Mu-type opioid receptor): > 32 µM (inactive)
IC50 [3]: > 20 µM (inactive)
IC50 [4]: > 32 µM (inactive)

Cc1cc(O)nc(-n2nc(C)cc2NC(=O)c2cc3ccccc3o2)n1
EC50 [5]: > 49.7 µM (inactive)
EC50 (Wee1-like protein kinase): > 16.6 µM (active)

COc1ccc(C(=O)O/N=C(\C)c2ccccc2)cc1
EC50 [6]: 3.61 µM (active)
EC50 [7]: 0.637 µM (active)
AC50 [8]: 26.1 µM (active)
AC50 [9]: 90.4 µM (active)

CCN(CC)CCC/N=C/c1c(-c2ccccc2)nn(-c2nc3ccccc3s2)c1O
IC50 [10]: > 80 µM (inactive)
AC50 [11]: > 20 µM (inactive)
